Test results from patent US20240116985A1, “STAPLED PEPTIDES AND METHODS THEREOF” (priority 2020, published 2024).
Values after ≈ are worked out from the molar mass of the structure shown. Where two headings read alike, the source gives them in different places.

Legend:
[1] = biological target: T1, beta-catenin/TCF4 engagement (Homo sapiens, UniProt P35222); assay: Nano-BRET target engagement assay (B-cat-Halo & TCF4-Luc in HEK293 cells); format: cell-based
T1 construct: expressed in transfected cells; host or cells: HEK293
T1 sequence (P35222 1-781): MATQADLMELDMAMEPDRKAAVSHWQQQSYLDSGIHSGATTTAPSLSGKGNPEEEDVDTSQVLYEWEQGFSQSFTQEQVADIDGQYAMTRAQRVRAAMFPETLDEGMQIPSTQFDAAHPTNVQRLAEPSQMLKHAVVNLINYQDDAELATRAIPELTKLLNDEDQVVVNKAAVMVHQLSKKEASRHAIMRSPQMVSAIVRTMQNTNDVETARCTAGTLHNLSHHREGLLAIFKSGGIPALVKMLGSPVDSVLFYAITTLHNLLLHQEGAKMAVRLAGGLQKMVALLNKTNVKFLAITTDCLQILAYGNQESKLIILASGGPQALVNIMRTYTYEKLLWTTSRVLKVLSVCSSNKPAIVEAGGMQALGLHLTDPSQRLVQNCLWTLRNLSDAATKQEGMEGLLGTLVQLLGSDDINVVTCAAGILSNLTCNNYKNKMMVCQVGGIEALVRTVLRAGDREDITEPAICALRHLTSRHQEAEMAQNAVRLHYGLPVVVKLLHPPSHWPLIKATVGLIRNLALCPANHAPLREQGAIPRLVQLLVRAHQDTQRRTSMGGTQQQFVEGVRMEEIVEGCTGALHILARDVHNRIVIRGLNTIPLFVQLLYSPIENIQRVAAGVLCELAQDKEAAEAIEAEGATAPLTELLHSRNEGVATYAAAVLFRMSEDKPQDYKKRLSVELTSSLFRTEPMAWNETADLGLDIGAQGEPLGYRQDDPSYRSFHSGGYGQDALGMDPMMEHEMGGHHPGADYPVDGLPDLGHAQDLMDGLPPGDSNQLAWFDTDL

[2] = biological target: T2, full-length beta-Catenin (Uniprot ID P35222) (Homo sapiens, UniProt P35222); assay: Fluorescence polarization IC50 (beta-catenin / 5FAM-TCF4 10-53 competition); format: binding
T2 construct: 10 nM full-length beta-Catenin (Uniprot ID P35222)
T2 sequence (P35222 1-781): T1 sequence (P35222 1-781)

CHI Log D procedure = format: physicochemical; settings: for chromatographic logD: pH 7.4, CHI Log D; for CHI Log D: pH 7.4
Solubility in PBS = format: physicochemical
Outline: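 Solubility is derived from HPLC peak areas: the ratio of the PBS supernatant peak to a 50 μM DMSO peptide peak, times 50 uM.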

[3] = absolute IC50, read-out: NanoBRET Abs IC50
[4] = fluorescence polarization, read-out: beta-Catenin FP IC50

Compound | IC50 [1, 3] | IC50 [2, 4] | chromatographic logD (CHI Log D procedure) | Solubility (Solubility in PBS; Solubility (uM)) | IC50 ([1]; read-out: NanoBRET Abs IC50) | IC50 ([2]; read-out: beta-Catenin FP IC50) | solubility at 15 min (Solubility in PBS; Solubility (uM)) | IC50 ([2]; read-out: FP EC50) | CHI Log D (CHI Log D procedure) | Solubility (Solubility in PBS) | IC50 ([1]; read-out: NanoBRET IC50) | inhibition at 10 µM ([1]; HEK293, 10 uM, read-out: NanoBRET % inh @ 10 uM)
CC(=O)N1CCC[C@]12CC=CCCCC1(CCCC=CCCCCCC[C@@](C)(C(=O)N[C@@H](Cc3ccccc3)C(=O)N[C@@H](Cc3csc4ccccc34)C(=O)N[C@@H](CCC(N)=O)C(=O)N[C@H](C)C(N)=O)NC(=O)[C@H](CC(N)=O)NC(=O)[C@H](Cc3ccccc3)NC(=O)[C@H](C)NC(=O)[C@H](C)NC(=O)[C@H](CCC(=O)O)NC(=O)[C@H](CC(=O)O)NC1=O)NC(=O)[C@H](CC(C)C)NC(=O)[C@H](CC(=O)O)NC2=O (stereo partly drawn) [I-731, Ac-PL3-Asp-Leu-B5-Asp-Glu-Ala-Ala-Phe-Asn-S8-Phe-BztA-Gln-dAla-NH2] | 11600 nM | 34 nM | 2.33 | 48 µM (≈ 93.1 µg/mL) |  |  |  |  |  |  |  | 
CC(=O)N1CCC[C@]12CC=CCCCC1(CCCC=CCCCOC(=O)N3CC[C@@](C(=O)N[C@@H](Cc4ccccc4Cl)C(=O)N[C@@H](Cc4csc5ccccc45)C(=O)N[C@@H](C(N)=O)[C@H](C)O)(C3)NC(=O)[C@H]([C@@H](C)O)NC(=O)[C@H](Cc3ccccc3)NC(=O)[C@H](C)NC(=O)[C@H](C)NC(=O)[C@H](CC(=O)O)NC(=O)[C@H](CC(=O)O)NC1=O)NC(=O)[C@H](CC(C)(C)C)NC(=O)[C@H](CC(=O)O)NC2=O (stereo partly drawn) [I-1033, Ac-PL3-Asp-Npg-B5-Asp-Asp-Ala-Ala-Phe-Thr-PyrS2-2ClF-BztA-dThr-NH2] |  |  | 2.5 | 34 µM (≈ 64.8 µg/mL) | 8600 nM | 10 nM |  |  |  |  |  | 
CC(=O)N1CCC[C@]12CC=CCCCC1(CCCC=CCCCOC(=O)N3CC[C@@](C(=O)N[C@@H](Cc4ccccc4)C(=O)N[C@@H](Cc4csc5ccccc45)C(=O)N[C@@H](CO)C(N)=O)(C3)NC(=O)[C@H](CO)NC(=O)[C@H](CC3CCCCC3)NC(=O)[C@H](C)NC(=O)[C@H](C)NC(=O)[C@H](CC(=O)O)NC(=O)[C@H](CC(=O)O)NC1=O)NC(=O)[C@H](CC(C)(C)C)NC(=O)[C@H](CC(=O)O)NC2=O (stereo partly drawn) [I-1105, Ac-PL3-Asp-Npg-B5-Asp-Asp-Ala-Ala-Cha-Ser-PyrS2-Phe-BztA-Ser-NH2] | > 20000 nM |  | 2.33 | 48 µM (≈ 88.8 µg/mL) |  | 36 nM |  |  |  |  |  | 
CC(=O)N1CCC[C@]12CC=CCCCC1(CCCC=CCCCOC(=O)N3CC[C@@](C(=O)N[C@@H](Cc4ccsc4)C(=O)N[C@@H](Cc4csc5ccccc45)C(=O)N[C@@H](CCC(N)=O)C(N)=O)(C3)NC(=O)[C@H](CC(N)=O)NC(=O)[C@H](Cc3ccccc3)NC(=O)[C@H](CCCCNC(=O)c3ccc(CN4CCN(C)CC4)cc3)NC(=O)[C@H](C)NC(=O)[C@H](CC(=O)O)NC(=O)[C@H](CC(=O)O)NC1=O)NC(=O)[C@H](CC(C)(C)C)NC(=O)[C@H](CC(=O)O)NC2=O (stereo partly drawn) [I-889, Ac-PL3-Asp-Npg-B5-Asp-Asp-Ala-[4MePipBz]Lys-Phe-Asn-PyrS2-3Thi-BztA-Gln-NH2] |  |  | 1.49 |  | > 20000 nM | 16 nM | 41 µM (≈ 89.9 µg/mL) |  |  |  |  | 
CC(=O)N1CCC[C@]12CC=CCCCC1(CCCC=CCCCOC(=O)N3CC[C@@](C(=O)N[C@@H](Cc4ccsc4)C(=O)N[C@@H](Cc4csc5ccccc45)C(=O)N[C@@H](CC(N)=O)C(N)=O)(C3)NC(=O)[C@H](CC(N)=O)NC(=O)[C@H](Cc3ccccc3)NC(=O)[C@H](C)NC(=O)[C@H](C)NC(=O)[C@H](CC(=O)O)NC(=O)[C@H](CC(=O)O)NC1=O)NC(=O)[C@H](CC(C)(C)C)NC(=O)[C@H](CC(=O)O)NC2=O (stereo partly drawn) [I-816, Ac-PL3-Asp-Npg-B5-Asp-Asp-Ala-Ala-Phe-Asn-PyrS2-3Thi-BztA-Asn-NH2] |  |  | 2.05 | 46 µM (≈ 87.6 µg/mL) | 13700 nM | 5 nM |  |  |  |  |  | 
CC(=O)N1CCC[C@]12CC=CCCCC1(CCCC=CCCCOC(=O)N3CC[C@@](C(=O)N[C@@H](Cc4ccccc4Cl)C(=O)N[C@@H](Cc4csc5ccccc45)C(=O)N[C@@H](CCC(N)=O)C(N)=O)(C3)NC(=O)[C@H]([C@@H](C)O)NC(=O)[C@H](Cc3ccccc3)NC(=O)[C@H](C)NC(=O)[C@H](C)NC(=O)[C@H](CC(=O)O)NC(=O)[C@H](CC(=O)O)NC1=O)NC(=O)[C@H](CC(C)(C)C)NC(=O)[C@H](CC(=O)O)NC2=O (stereo partly drawn) [I-1013, Ac-PL3-Asp-Npg-B5-Asp-Asp-Ala-Ala-Phe-Thr-PyrS2-2C1F-BztA-Gln-NH2] |  |  | 2.13 | 47 µM (≈ 90.9 µg/mL) | 12400 nM | 8 nM |  |  |  |  |  | 
CC[C@@H]1NC(=O)[C@H](CC(=O)O)NC(=O)[C@]2(CC=CCCCC3(CCCC=CCCCCCC[C@@](C)(C(=O)N[C@@H](Cc4ccccc4)C(=O)N[C@@H](Cc4csc5ccccc45)C(=O)N[C@@H](Cc4c[nH]cn4)C(N)=O)NC(=O)[C@H](CC(N)=O)NC(=O)[C@H](Cc4ccccc4)NC(=O)[C@H](C)NC(=O)[C@H](C)NC(=O)[C@H](CC(=O)O)NC(=O)[C@H](CC(=O)O)NC3=O)NC1=O)CCCN2C(C)=O (stereo partly drawn) [I-574, Ac-PL3-Asp-Abu-B5-Asp-Asp-Ala-Ala-Phe-Asn-S8-Phe-BztA-His-NH2] | > 20000 nM | 36 nM |  |  |  |  |  | 36 nM | 2.16 | 48 µM (≈ 88.1 µg/mL) |  | 
CC(=O)N1CCC[C@]12CC=CCCCC1(CCCC=CCCCOC(=O)N3CC[C@@](C(=O)N[C@@H](Cc4ccsc4)C(=O)N[C@@H](Cc4csc5ccccc45)C(=O)N[C@@H](CCC(N)=O)C(=O)N[C@@H](CCCCNC(=O)CN4CCN(C)CC4)C(N)=O)(C3)NC(=O)[C@H](CC(N)=O)NC(=O)[C@H](Cc3ccccc3)NC(=O)[C@H](C)NC(=O)[C@H](C)NC(=O)[C@H](CC(=O)O)NC(=O)[C@H](CC(=O)O)NC1=O)NC(=O)[C@H](CC(C)(C)C)NC(=O)[C@H](CC(=O)O)NC2=O (stereo partly drawn) [I-906, Ac-PL3-Asp-Npg-B5-Asp-Asp-Ala-Ala-Phe-Asn-PyrS2-3Thi-BztA-Gln-MePipAc Lys-NH2] |  |  | 1.75 |  |  | 8 nM | 46 µM (≈ 101 µg/mL) |  |  |  | > 20000 nM | 
CCCCCCCC(=O)NCCCC[C@@H]1NC(=O)[C@H](C)NC(=O)[C@H](CC(=O)O)NC(=O)[C@H](CC(=O)O)NC(=O)C2(CCCC=CCCCOC(=O)N3CC[C@@](C(=O)N[C@@H](Cc4ccsc4)C(=O)N[C@@H](Cc4csc5ccccc45)C(=O)N[C@@H](CCC(N)=O)C(N)=O)(C3)NC(=O)[C@H](CC(N)=O)NC(=O)[C@H](Cc3ccccc3)NC1=O)CCCC=CC[C@]1(CCCN1C(C)=O)C(=O)N[C@@H](CC(=O)O)C(=O)N[C@@H](CC(C)(C)C)C(=O)N2 (stereo partly drawn) [I-898, Ac-PL3-Asp-Npg-B5-Asp-Asp-Ala-[Oct]Lys-Phe-Asn-PyrS2-3Thi-BztA-Gln-NH2] |  |  | 2.2 | 42 µM (≈ 88.3 µg/mL) | > 20000 nM | 16 nM |  |  |  |  |  | 
CC(=O)N1CCC[C@]12CC=CCCCC1(CCCC=CCCCOC(=O)N3CC[C@@](C(=O)N[C@@H](Cc4ccsc4)C(=O)N[C@@H](Cc4csc5ccccc45)C(=O)N[C@@H](CCC(N)=O)C(=O)N[C@@H](C)C(N)=O)(C3)NC(=O)[C@H](CC(N)=O)NC(=O)[C@H](Cc3ccccc3)NC(=O)[C@H](C)NC(=O)[C@H](C)NC(=O)[C@H](CC(=O)O)NC(=O)[C@H](CC(=O)O)NC1=O)NC(=O)[C@H](CC(C)(C)C)NC(=O)[C@H](CC(=O)O)NC2=O (stereo partly drawn) [I-819, Ac-PL3-Asp-Npg-B5-Asp-Asp-Ala-Ala-Phe-Asn-PyrS2-3Thi-BztA-Gln-Ala-NH2] |  |  | 2.03 |  | 7500 nM | 5 nM |  |  |  | 50 µM (≈ 99.5 µg/mL) |  | 37.8%
CC(=O)N1CCC[C@]12CC=CCCCC1(CCCC=CCCCOC(=O)N3CC[C@@](C(=O)N[C@@H](Cc4ccsc4)C(=O)N[C@@H](Cc4csc5ccccc45)C(=O)N[C@@H](CCC(N)=O)C(N)=O)(C3)NC(=O)[C@H](CC(N)=O)NC(=O)[C@H](Cc3ccccc3)NC(=O)[C@H](C)NC(=O)[C@H](C)NC(=O)[C@H](CC(=O)O)NC(=O)[C@H](CC(=O)O)NC1=O)NC(=O)[C@H](CC(C)C)NC(=O)[C@H](CC(=O)O)NC2=O (stereo partly drawn) [I-688, Ac-PL3-Asp-Leu-B5-Asp-Asp-Ala-Ala-Phe-Asn-PyrS2-3Thi-BztA-Gln-NH2] | 30100 nM | 6 nM |  |  |  |  |  | 6 nM | 1.924 | 46 µM (≈ 87.6 µg/mL) |  | 
CC(=O)N1CCC[C@]12CC=CCCCC1(CCCC=CCCCCCC[C@@](C)(C(=O)N[C@@H](Cc3ccccc3)C(=O)N[C@@H](Cc3csc4ccccc34)C(=O)N[C@@H](Cc3c[nH]cn3)C(N)=O)NC(=O)[C@H](CCC(N)=O)NC(=O)[C@H](Cc3ccccc3)NC(=O)[C@H](C)NC(=O)[C@H](C)NC(=O)[C@H](CCC(=O)O)NC(=O)[C@H](CC(=O)O)NC1=O)NC(=O)[C@H](CC(C)C)NC(=O)[C@H](CC(=O)O)NC2=O (stereo partly drawn) [I-506, Ac-PL3-Asp-Leu-B5-Asp-Glu-Ala-Ala-Phe-Gln-S8-Phe-BztA-His-NH2] | 8900 nM | 25 nM | 2.41 |  |  |  |  |  |  | 10 µM (≈ 18.9 µg/mL) |  | 
